Assay results taken from publication PMC2729980 (Planta, 2009).

Target: T1, DkFGT (GST-DkFGT) (Diospyros kaki, UniProt C8KH59)
T1 sequence (C8KH59 1-459): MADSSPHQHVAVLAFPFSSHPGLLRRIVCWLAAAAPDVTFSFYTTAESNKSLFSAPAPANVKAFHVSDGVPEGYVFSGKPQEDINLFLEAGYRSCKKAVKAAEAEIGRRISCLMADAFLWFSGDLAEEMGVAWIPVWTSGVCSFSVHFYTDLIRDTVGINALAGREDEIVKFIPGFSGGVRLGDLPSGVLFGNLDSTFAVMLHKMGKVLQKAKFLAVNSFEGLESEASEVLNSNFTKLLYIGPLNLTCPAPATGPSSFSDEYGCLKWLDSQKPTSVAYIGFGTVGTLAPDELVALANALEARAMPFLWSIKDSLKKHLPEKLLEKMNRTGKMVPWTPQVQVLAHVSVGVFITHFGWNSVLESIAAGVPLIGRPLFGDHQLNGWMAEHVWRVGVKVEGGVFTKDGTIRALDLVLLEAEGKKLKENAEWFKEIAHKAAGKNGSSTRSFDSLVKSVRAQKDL
Experiment: biochemical

Km [µM]	Structure (SMILES)
143	O=c1c(O)c(-c2ccc(O)cc2)oc2cc(O)cc(O)c12 [kaempferol]
186	Oc1ccc(-c2[o+]c3cc(O)cc(O)c3cc2O)cc1 [pelargonidin]
